What all share (assay): Survival of bacteria inoculated into silver-treated water aliquots
What all share (format): cell-based

In assay [1] the test system is E. coli ATCC 11775. The following applies: initial concentration 5.81. On the procedure: (§1) Several bacterial organisms, E. coli ATCC 11775, Pseudomonas aeruginosa ATCC 27853, and Bacillus cereus NCTC 10320 were inoculated into equal volumes of the abovementioned aliquots to achieve an initial bacterial concentration of approximately 10^6 cells per millilitre. After three predetermined time periods of 5 minutes, 1 hour, and 8 days, aliquots of each solution were withdrawn, and enumeration of surviving organisms was performed. All tests were conducted in duplicate.
(§2) All results are expressed in log10 units.

In assay [2] the test system is Bacillus cereus NCTC 10320. To be noted: initial concentration 5.82. Here is the method:
as §1, §2

The test system of assay [3] is Pseudomonas aeruginosa ATCC 27853. To be noted: initial concentration 5.62. On the procedure: as §1, §2
The mark [4] stands for this setting: sodium hypochlorite 0.5 ppm, period 5 min.
Setting [5] is: sodium hypochlorite 0.5 ppm, period 1 hour.
[6] abbreviates: sodium hypochlorite 0.5 ppm, period 8 days.

The structures appear in SMILES notation.

For `[Na+].[O-]Cl` [NaOCl, sodium hypochlorite, reference compound], the “surviving organisms, E. coli” value in assay [1] (setting [4]) came to 5.82 log10 units; in assay [1] (setting [5]), 5.81 log10 units; in assay [1] (setting [6]) it was 4.48 log10 units. For the same compound, the results for the “surviving organisms, Bacillus cerus” value in assay [2] (setting [4]), in assay [2] (setting [5]) and in assay [2] (setting [6]) were 4.61 log10 units, 4.61 log10 units and 4.90 log10 units, respectively. For the same compound, the “surviving organisms, Pseudomonas aeruginosa” value in assay [3] (setting [4]) turned out to be 5.62 log10 units; in assay [3] (setting [5]) it was 5.63 log10 units; in assay [3] (setting [6]), 4.98 log10 units.

In the case of `[Ag]` [Silver, silver], the “surviving organisms, E. coli” value turned out to be 5.81 log10 units in assay [1] (silver 50 ppb, period 5 min); 4.79 log10 units in assay [1] (silver 50 ppb, period 1 hour); 0 log10 units in assay [1] (silver 50 ppb, period 8 days); 5.77 log10 units in assay [1] (silver 111 ppb, period 5 min); 4.48 log10 units in assay [1] (silver 111 ppb, period 1 hour); 0 log10 units in assay [1] (silver 111 ppb, period 8 days). For the same compound, the “surviving organisms, E. coli” value in assay [1] (silver 190 ppb, period 5 min) came out at 5.76 log10 units; in assay [1] (silver 190 ppb, period 1 hour), 3.74 log10 units; in assay [1] (silver 190 ppb, period 8 days), 0 log10 units; in assay [1] (silver 373 ppb, period 5 min) it was 5.79 log10 units; in assay [1] (silver 373 ppb, period 1 hour), 3.88 log10 units; in assay [1] (silver 373 ppb, period 8 days) it was 0 log10 units. Moreover, the “surviving organisms, Bacillus cerus” value in assay [2] (silver 50 ppb, period 5 min) is recorded as 4.60 log10 units; in assay [2] (silver 50 ppb, period 1 hour) it was 2.30 log10 units; in assay [2] (silver 50 ppb, period 8 days), 0 log10 units; in assay [2] (silver 111 ppb, period 5 min), 4.20 log10 units; in assay [2] (silver 111 ppb, period 1 hour), 2.00 log10 units; in assay [2] (silver 111 ppb, period 8 days), 0 log10 units. Further, the “surviving organisms, Bacillus cerus” value in assay [2] (silver 190 ppb, period 5 min) is on record as 4.28 log10 units; in assay [2] (silver 190 ppb, period 1 hour), 1.93 log10 units; in assay [2] (silver 190 ppb, period 8 days), 0 log10 units; in assay [2] (silver 373 ppb, period 5 min), 4.19 log10 units; in assay [2] (silver 373 ppb, period 1 hour), 0 log10 units; in assay [2] (silver 373 ppb, period 8 days) it was 0 log10 units. Besides, the “surviving organisms, Pseudomonas aeruginosa” value in assay [3] (silver 50 ppb, period 5 min) was determined as 5.61 log10 units; in assay [3] (silver 50 ppb, period 1 hour), 5.27 log10 units; in assay [3] (silver 50 ppb, period 8 days) it was 3.23 log10 units; in assay [3] (silver 111 ppb, period 5 min), 5.61 log10 units; in assay [3] (silver 111 ppb, period 1 hour) it was 4.98 log10 units; in assay [3] (silver 111 ppb, period 8 days) it was 2.59 log10 units. Besides, the “surviving organisms, Pseudomonas aeruginosa” value in assay [3] (silver 190 ppb, period 5 min) came to 5.61 log10 units; in assay [3] (silver 190 ppb, period 1 hour), 5.00 log10 units; in assay [3] (silver 190 ppb, period 8 days) it was 1.10 log10 units; in assay [3] (silver 373 ppb, period 5 min), 5.62 log10 units; in assay [3] (silver 373 ppb, period 1 hour) it was 5.10 log10 units; in assay [3] (silver 373 ppb, period 8 days) it was 2.00 log10 units.

Values taken from patent publication US8512725B2, “Method, material and system for controlled release of anti-microbial agents” (Bacstop Corporation Pty Ltd, priority 2004, dated 2013).
